Laboratory results published in paper PMC12304827 (British Journal of Clinical Pharmacology, 2025).
Where two headings read alike, the source gives them in different places.

Columns and labels:
[1] = tested on: CYP1A2; details: cited from earlier work
[2] = OC study 2: EE and LN PK with/without ritlecitinib 50 mg QD; assay type: in vivo, human; details: for AUC(0-inf) / AUC(0-t) / Cmax: female, human, plasma, oral; for Cmax: adjusted geometric mean (test), 1 Portia tablet on Day 10 of ritlecitinib 50 mg QD × 13 days, healthy females
[3] = OC study 1: EE and LN PK with/without ritlecitinib 200 mg QD; assay type: in vivo, human; details: for AUC(0-inf) / Cmax / AUC(0-t): female, human, plasma, oral, healthy females; for AUC(0-inf): AUCinf; for AUC(0-t): AUClast
[4] = molecular target: T1, CYP2B6 (Homo sapiens, UniProt P20813); details: for Effect of ritlecitinib on efavirenz AUC0–72 and Cmax (in words): ritlecitinib 200 mg QD
T1 sequence (P20813 1-491): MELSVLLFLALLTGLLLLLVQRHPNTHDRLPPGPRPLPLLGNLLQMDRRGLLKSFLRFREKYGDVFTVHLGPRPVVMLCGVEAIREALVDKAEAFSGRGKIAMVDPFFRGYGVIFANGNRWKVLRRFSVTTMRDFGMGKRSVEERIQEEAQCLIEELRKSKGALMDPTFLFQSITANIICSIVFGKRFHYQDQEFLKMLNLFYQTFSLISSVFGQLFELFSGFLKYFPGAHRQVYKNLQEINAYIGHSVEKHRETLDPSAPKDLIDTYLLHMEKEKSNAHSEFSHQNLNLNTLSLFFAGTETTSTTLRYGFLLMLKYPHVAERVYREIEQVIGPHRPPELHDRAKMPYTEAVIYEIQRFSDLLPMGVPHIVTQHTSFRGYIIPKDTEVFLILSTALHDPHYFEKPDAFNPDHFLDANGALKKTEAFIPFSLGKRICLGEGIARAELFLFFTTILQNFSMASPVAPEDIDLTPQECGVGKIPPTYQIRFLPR

[5] = tested on: CYP3A; assay: Midazolam and efavirenz DDI study: midazolam PK with/without ritlecitinib
[6] = tested on: CYP1A2; assay: Caffeine DDI study: caffeine PK with/without ritlecitinib; assay type: in vivo, human; details: from caffeine DDI at ritlecitinib 200 mg QD
[7] = tested on: CYP3A; assay: Itraconazole DDI study: ritlecitinib PK with/without itraconazole; assay type: in vivo, human
[8] = molecular target: T2, CYP1A2 (Homo sapiens, UniProt P05177); assay: CYP time-dependent inhibition in human liver microsomes; assay type: in vitro ADME
T2 sequence (P05177 1-516): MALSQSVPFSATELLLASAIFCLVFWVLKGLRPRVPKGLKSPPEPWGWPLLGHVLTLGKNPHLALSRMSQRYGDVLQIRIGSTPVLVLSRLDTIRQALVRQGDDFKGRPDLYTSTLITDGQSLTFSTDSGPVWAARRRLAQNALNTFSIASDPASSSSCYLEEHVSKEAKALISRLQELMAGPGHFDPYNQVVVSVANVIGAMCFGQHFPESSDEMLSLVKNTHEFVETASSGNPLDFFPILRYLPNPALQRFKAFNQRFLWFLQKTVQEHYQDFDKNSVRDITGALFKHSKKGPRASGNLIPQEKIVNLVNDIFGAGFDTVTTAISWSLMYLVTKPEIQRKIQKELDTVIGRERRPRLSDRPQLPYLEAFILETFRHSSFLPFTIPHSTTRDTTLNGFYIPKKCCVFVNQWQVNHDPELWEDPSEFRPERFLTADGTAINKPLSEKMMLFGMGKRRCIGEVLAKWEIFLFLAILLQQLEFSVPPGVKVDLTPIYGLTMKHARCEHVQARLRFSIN

[9] = tested on: CYP3A4/5; assay: as above; assay type: in vitro ADME
[10] = tested on: CYP; assay: Rifampicin DDI study: ritlecitinib PK with/without rifampicin; assay type: in vivo, human
[11] = cited from earlier work
[12] = tested on: organic cation transporter 1 (OCT1); details: cited from earlier work
[13] = cited from earlier work; remark: listed apart in the source
[14] = caffeine single dose with ritlecitinib 200 mg QD × 9 days, plasma
[15] = caffeine with ritlecitinib 200 mg QD × 9 days vs alone
[16] = caffeine with ritlecitinib 200 mg QD × 9 days vs alone, listed as caffeine
[17] = adjusted geometric mean (reference), 1 Portia tablet (EE 30 μg and LN 150 μg) alone
[18] = adjusted geometric mean (test), 1 Portia tablet (EE 30 μg and LN 150 μg) on Day 10 of ritlecitinib 200 mg QD × 11 days
[19] = multiple ritlecitinib 200 mg QD doses
[20] = efavirenz with ritlecitinib 200 mg QD × 11 days vs without
[21] = efavirenz with ritlecitinib 200 mg QD × 11 days vs without, listed as efavirenz
[22] = midazolam with ritlecitinib 200 mg QD × 11 days vs without
[23] = midazolam with ritlecitinib 200 mg QD × 11 days vs without, listed as midazolam
[24] = multiple 200-mg doses of itraconazole, ritlecitinib 30 mg
[25] = ritlecitinib 30 mg with itraconazole 200 mg QD × 5 days vs alone
[26] = ritlecitinib 50 mg with rifampicin 600 mg QD × 8 days vs alone
[27] = ritlecitinib 50 mg with rifampicin 600 mg QD × 8 days vs alone, listed as ritlecitinib

## Cn1c(=O)c2c(ncn2C)n(C)c1=O [Caffeine, caffeine]
[1]; caffeine alone, plasma
  AUCinf, adjusted geometric mean (reference): 15 660 ng h/mL
  AUClast, adjusted geometric mean (reference): 14 780 ng h/mL
  Cmax, adjusted geometric mean (reference): 2162 ng/mL
[1]; [14]
  AUCinf, adjusted geometric mean (test): 41 530 ng h/mL
  AUClast, adjusted geometric mean (test): 38 580 ng h/mL
  Cmax, adjusted geometric mean (test): 2372 ng/mL
[1]; [15]
  AUClast, ratio (test/reference) of adjusted geometric means (90% CI): 261.0 (232.5−293.1) %
  Cmax, ratio (test/reference) of adjusted geometric means (90% CI): 109.7 (103.9−115.9) %
[1]; [16]
  AUCinf, ratio (test/reference) of adjusted geometric means (90% CI): 265.1%
  Cmax, ratio (test/reference) of adjusted geometric means (90% CI): 109.7%
[1]; ritlecitinib 200 mg QD
  Fold increase of caffeine AUCinf by ritlecitinib: ≈ 2.7 fold
  Fold increase of caffeine Cmax by ritlecitinib: ~1.1 fold
  Increase of caffeine AUCinf in the presence of ritlecitinib: ≈ 165%
  Increase of caffeine Cmax in the presence of ritlecitinib: ≈ 10%

## C#C[C@]1(O)CC[C@H]2[C@@H]3CCc4cc(O)ccc4[C@H]3CC[C@@]21C [EE, ethinyl oestradiol]
[2]; 50 mg
  AUC(0-inf): 0.733 ng·h/mL
  AUC(0-t): 0.605 ng·h/mL
  Cmax: 0.0638 ng/mL
[2]; 1 Portia tablet
  AUC(0-inf): 0.747 ng·h/mL
  AUC(0-t): 0.658 ng·h/mL
[2]
  Effect of ritlecitinib 50 mg QD on PK of OC steroid (in words): did not produce a clinically meaningful change
[2]; listed as ethinyl oestradiol
  Effect of ritlecitinib 50 mg QD on PK of OC steroid (in words): no relevant change
[3]; [17]
  AUC(0-inf): 0.8 ng·h/mL
[3]; [18]
  AUC(0-inf): 0.656 ng·h/mL
  Cmax: 0.0606 ng/mL
[3]; [19]
  Decrease of AUCinf following coadministration of ritlecitinib: ≈ 18%
  Decrease of Cmax following coadministration of ritlecitinib: ≈ 12%
[3]; ritlecitinib 200 mg QD
  Effect of ritlecitinib 200 mg QD on PK of OC steroid (in words): decreased

## O=C1Nc2ccc(Cl)cc2[C@@](C#CC2CC2)(C(F)(F)F)O1 [Efavirenz, efavirenz]
[4]; [20]
  AUC0–72, ratio (test/reference) of adjusted geometric means (90% CI): 99.7 (95.2–104.4) %
  AUClast, ratio (test/reference) of adjusted geometric means (90% CI): 99.7 (95.3–104.4) %
  Cmax, ratio (test/reference) of adjusted geometric means (90% CI): 88.2 (77.1–101.0) %
[4]; [21]
  AUC0–72, ratio (test/reference) of adjusted geometric means (90% CI): 99.7%
  Cmax, ratio (test/reference) of adjusted geometric means (90% CI): 88.2%
[4]
  Effect of ritlecitinib on efavirenz AUC0–72 and Cmax (in words): similar
[4]; listed as efavirenz
  Effect of ritlecitinib on efavirenz AUC0–72 and Cmax (in words): did not produce clinically meaningful changes

## C#C[C@]1(O)CC[C@H]2[C@@H]3CCC4=CC(=O)CC[C@@H]4[C@H]3CC[C@@]21CC [LN, levonorgestrel]
[2]; 50 mg
  AUC(0-t): 29.6 ng·h/mL
  Cmax: 2.32 ng/mL
[2]; 1 Portia tablet
  AUC(0-t): 33.7 ng·h/mL
[3]; [17]
  AUC(0-t): 23.8 ng·h/mL
  Cmax: 2.94 ng/mL
[3]; [18]
  AUC(0-t): 26.8 ng·h/mL
  Cmax: 3.03 ng/mL

## Cc1ncc2n1-c1ccc(Cl)cc1C(c1ccccc1F)=NC2 [Midazolam, midazolam]
[5]; [22]
  AUCinf, ratio (test/reference) of adjusted geometric means (90% CI): 269.4 (216.1–335.9) %
  AUClast, ratio (test/reference) of adjusted geometric means (90% CI): 269.3 (215.8–336.1) %
  Cmax, ratio (test/reference) of adjusted geometric means (90% CI): 180.8 (148.1–220.6) %
[5]; [23]
  AUCinf, ratio (test/reference) of adjusted geometric means (90% CI): 269.4%
  Cmax, ratio (test/reference) of adjusted geometric means (90% CI): 180.8%
[5]; ritlecitinib 200 mg QD
  Fold increase of midazolam AUCinf in the presence of ritlecitinib: 2.7 fold
  Fold increase of midazolam Cmax in the presence of ritlecitinib: 1.8 fold
  Increase of midazolam AUCinf in the presence of ritlecitinib: ≈ 169%
[5]; ritlecitinib 200 mg QD, listed as midazolam
  Fold increase of midazolam AUCinf in the presence of ritlecitinib: ≈ 2.7 fold

## C=CC(=O)N1C[C@H](Nc2ncnc3[nH]ccc23)CC[C@@H]1C [Ritlecitinib, ritlecitinib]
[6]
  Classification as clinical CYP1A2 inhibitor: moderate inhibitor
[7]; human, plasma, oral, 30 mg
  AUC(0-inf): 268 ng·h/mL
  AUC(0-t): 264 ng·h/mL
  Cmax: 153 ng/mL
[7]; [24]
  Effect of itraconazole on ritlecitinib Cmax (in words): similar
  Increase of ritlecitinib AUCinf with itraconazole: ≈ 15%
[7]; [25]
  AUCinf, ratio (test/reference) of adjusted geometric means (90% CI): 115.1 (104.6–126.7) %
  AUClast, ratio (test/reference) of adjusted geometric means (90% CI): 115.1 (104.4–126.7) %
  Cmax, ratio (test/reference) of adjusted geometric means (90% CI): 102.5 (82.8–127.0) %
[8]
  Time-dependent inhibition of CYP1A2 in vitro (in words): time dependent inhibitor
[9]
  Time-dependent inhibition of CYP3A in vitro (in words): time dependent inhibitor
[10]; multiple rifampicin doses, ritlecitinib 50 mg
  Decrease of ritlecitinib AUCinf with rifampicin: ≈ 45%
[10]; [26]
  AUCinf, ratio (test/reference) of adjusted geometric means (90% CI): 55.8 (51.9–59.9) %
  AUClast, ratio (test/reference) of adjusted geometric means (90% CI): 55.7 (51.9–59.7) %
  Cmax, ratio (test/reference) of adjusted geometric means (90% CI): 75.1 (63.3–89.1) %
[10]; [27]
  AUCinf, ratio (test/reference) of adjusted geometric means (90% CI): 55.8%
  Cmax, ratio (test/reference) of adjusted geometric means (90% CI): 75.1%
[10]; typical exposure range 0.5- to 2-fold of mean exposure
  Clinical relevance of exposure change with rifampicin (in words): not decreased to clinically relevant levels
[11]
  Contribution of any single pathway to metabolism: ≤ 25%
  Predicted collective contribution of CYPs to metabolic disposition: ≈ 47%
  Predicted contribution of glutathione conjugation to metabolic disposition: ≈ 24%
[12]
  Inhibition of OCT1 (in words): inhibitor
[5]; from midazolam DDI at ritlecitinib 200 mg QD
  Classification as clinical CYP3A inhibitor: moderate inhibitor
[13]; quoted for the study design, ref previous studies
  Half-life (t½) of ritlecitinib: < 2 h
[13]; up to 200 mg
  Dose proportionality of exposure (in words): approximately dose‐proportionally
